# Results published in patent US20130130376A1, “SCREENING METHODS, COMPOSITIONS IDENTIFIED THEREBY, TOOLS USEFUL FOR THE IDENTIFICATION THEREOF, AND CELL POPULATIONS PRODUCED THEREBY” (priority 2010, published 2013).
# Tested on: Jurkat cells
# Assay: ECMP attachment screen for Jurkat cell attachment on hydrogel array spots
# Assay type: cell-based, human
# Settings: printed alone in a 400 μm spot on hydrogel coated slide; nuclear fluorescence (DraQ) after 3 hours of attachment
# Method: In certain embodiments, stock solutions of extracellular matrix (ECM) components (0.01 mg/ml-1 mg/ml), such as Collagen I, III, IV, V, VI, Fibronectin, Laminin, and the like, as well as Hyaluronic Acid, gelatin and BSA (negative control) are mixed 1:1 with 200 mM acetate, 10 mM EDTA, 40% (v/v) glycerol, and 0.5% (v/v) Triton X-100 in MQH2O, at pH 4.9. Individual and combinations of different components are mixed in 384-well plates. This ECM based array is used to screen for the optimal cell attachment conditions.
# The human acute T cell leukemia Jurkat cell line (ATTC Number TIB-153) was purchased from American Type Culture Collection (ATCC). Cells were cultured in RPMI-1640, supplemented with 10% FBS, 2 mmol/liter glutamin and antibiotics (100 IU/ml of penicillin G) and incubated at 37° C. in a humidified atmosphere of 5% CO2. […]
# FIG. 3, for example, summarizes the attachment components that were identified to support Jurkat cell attachment on invention arrays. Briefly, Jurkat nuclear intensity was monitored by fluorescence using DraQ staining after 3 hours of attachment. The slides were read using a […] and fluorescence was quantified using the Genepix 2.0 software. […]
substance,measurement,value
Fibronectin,Jurkat cell attachment,consistently supported attachment of Jurkat cells
